Converted amounts (≈) assume the structure as drawn. Like-named read-outs stand apart in the source and are kept apart here.
Columns and labels:
MDA MB435 = test: XTT cell growth inhibition, MDA MB435; assay type: cell-based; conditions: Homo sapiens, MDA-MB-435, read-out: IC50 (nM), MDA MB435
SKOV3 = test: XTT cell growth inhibition, SKOV3; assay type: cell-based; conditions: Homo sapiens, SK-OV-3, read-out: IC50 (nM), SKOV3
CAG myeloma cell lines = test: Cell cycle analysis (propidium iodide DNA staining), CAG; assay type: cell-based, human; conditions: 31.25 nM
From the text: CAG myeloma cell lines were used.

[1] = system: human xenografts in nude mice, such as MX-1; conditions: mouse, in vivo
[2] = system: RPMI8226 myeloma cell line; test: Annexin V staining, RPMI8226; assay type: cell-based, human; conditions: 24 hours treatment
From the text: In early apoptotic cells, the membrance phospholipids phosphatidylserine (PS) is translocated from the inner to the outer leaflet of the plasma membrane, thereby exposing PS to the external cellular environment. Annexin V is a 35-36 kD Ca^+2 dependent phospholipid-binding protein that has a high affinity for PS, and binds to cells with exposed PS. In conjunction with a vital dye such as 7-amino-actinomycin (7-AAD) staining dead cells, this assay allows the identification of early apoptotic cells.

[3] = system: human mammary carcinoma MX-1 xenograft; conditions: mouse, in vivo
Solubility in water = conditions: water
IGROV = test: XTT cell growth inhibition, IGROV; assay type: cell-based; conditions: Homo sapiens, read-out: IC50 (nM), IGROV
RPMI8226 = test: XTT cell growth inhibition, RPMI8226; assay type: cell-based; conditions: Homo sapiens, RPMI-8226, read-out: IC50 (nM), RPMI8226
[4] = system: myeloma cell lines (RPMI8226, CAG); test: XTT cell proliferation, myeloma cell lines; assay type: cell-based, human; conditions: Homo sapiens, RPMI-8226, read-out: IC50, myeloma cell lines (RPMI8226, CAG)
in vitro = conditions: human, s9
Protocol: Stability of epothilones in mouse and in human liver S9 fraction. The stability study was carried out with a fully automated HPLC system which consisted of a Prospekt-2 (Spark Holland, Netherlands) sample preparation system and an Agilent 1100 HPLC system. Briefly, the Prospekt 2 picked up a C8 extraction cartridge and washed it with acetonitrile and water. The Agilent autosampler, set at 37° C., picked up 20 μl of the sample, loaded it onto the cartridge, washed it with water, then the Prospekt-2 diverted the mobile phase stream through the extraction cartridge onto the analytical column, Reliance Stable Bond C8 4×80 mm with guard column (MacMod, Chadds Ford, Pa.) and the eluent was monitored at 250 nm. […] Sample preparation involved the addition of equal volumes of plasma to PBS for a total volume of 300-400 μl, filtered, and the addition of 0.5-2 μl of the substrate (20 mM) to achieve about 30-50 mAU at 250 nm in the HPLC analysis. For pooled human liver microsome S9 fraction (Xeno Tech, Lenex, Kans.), 20 μl (400 μg) or S9 fraction was mixed with 280 μl of PBS then proceeded as above. The sampling period was controlled by the autosampler and peak area data were collected to compare the rate of disappearance of the parent compound.
Stability of epothilones in mouse and in human liver S9 fraction: The stability study was carried out with a fully automated HPLC system which consisted of a Prospekt-2 (Spark Holland, Netherlands) sample preparation system and an Agilent 1100 HPLC system. Briefly, the Prospekt 2 picked up a C8 extraction cartridge and washed it with acetonitrile and water. The Agilent autosampler, set at 37° C., picked up 20 μl of the sample, loaded it onto the cartridge, washed it with water, then the Prospekt-2 diverted the mobile phase stream through the extraction cartridge onto the analytical column, Reliance Stable Bond C8 4×80 mm with guard column (MacMod, Chadds Ford, Pa.) and the eluent was monitored at 250 nm. […] Sample preparation involves the addition of equal volumes of plasma to PBS for a total volume of 400 μl, filtered, and the addition of 0.5-2 μl of the substrate (20 mM) to achieve about 30-50 mAU at 250 nm in the HPLC analysis. For pooled human liver microsome S9 fraction (Xeno Tech, Lenex, Kans.), 20 μl (400 μg) or S9 fraction was mixed with 280 μl of PBS then proceeds as above. The sampling period was controlled by the autosampler and peak area data were collected to compare the rate of disappearance of the parent compound.

[5] = system: RPMI-8226 (human multiple myeloma cell line); test: Global gene expression (Affymetrix chip AU133 2.0); assay type: cell-based
[6] = system: RPMI8226 myeloma cell lines; test: Cell cycle analysis (propidium iodide DNA staining), RPMI8226; assay type: cell-based, human; conditions: 31.25 nM
From the text: RPMI8226 myeloma cell lines were used.

CAG myeloma cells = test: Disseminated CAG xenograft myeloma mice; conditions: 20 mg/kg
Protocol: 10×10^6 CAG myeloma cells engineered with Luc-eGFP-TK fusion gene were injected intravenously into the mouse-tail vein, and the treatment was started when decent myeloma cells implantation was detected by bioluminescence imaging on day 7.

HS-5 = test: XTT cell growth inhibition, HS-5; assay type: cell-based; conditions: Homo sapiens, HS5, read-out: IC50 (nM), HS-5
HCT-116 = test: XTT cell growth inhibition, HCT-116; assay type: cell-based; conditions: Homo sapiens, HCT-116, read-out: IC50 (nM), HCT-116
H929 = test: XTT cell growth inhibition, H929; assay type: cell-based; conditions: Homo sapiens, NCI-H929, read-out: IC50 (nM), H929
RL = test: XTT cell growth inhibition, RL; assay type: cell-based; conditions: Homo sapiens, read-out: IC50 (nM), RL

Protocol for CCRF-CEM: Cytotoxicity Assays. In preparation for in vitro cytotoxicity assays, cells were cultured at an initial density 2-5×10^4 cells per milliliter. […] For both methods, the absorbance of each well was measured with a microplate reader (Power Wave XS, Bio-Tek, Winooski, Vt.).
A typical experiment involves culturing cells (e.g., CCRF-CEM) at an initial density of 2-5×10^4 cells per ml. […] For cells that were grown in suspension (such as CCRF-CEM and its sublines), cytotoxicitiy is measured by using the 2,-3-bis(2-methoxy-4-nitro-5-sulfophenyl)-5 carboxanilide)-2H terazodium hydroxide (XTT)-microculture tetrazonium method in duplicate in 96-well microtiter plates. For both methods, the absorbance of each well is measured with a microplate reader (EL-340, Bio-Tek, Burlington, Vt.). Each run entails six or seven concentrations of the tested drugs. Dose-effect relationship data are analyzed with the median-effect plot.
Cytotoxicity Assays: In preparation for in vitro cytotoxicity assays, cells were cultured at an initial density 2-5×10^4 cells per milliliter. […] For both methods, the absorbance of each well was measured with a microplate reader (Power Wave XS, Bio-Tek, Winooski, Vt.).

For C/C1=C/CC(/C(C)=C/c2csc(C)n2)OC(=O)C[C@H](O)C(C)(C)C(=O)[C@H](C)[C@@H](O)[C@@H](C)CCC1 (stereo partly shown) [Compound 1, 12,13-desoxyepothilone B, reference compound], the IC50 (MDA MB435) was 7.8 ± 4.2 nM, the IC50 (SKOV3) was 13 ± 4.7 nM and the Cell cycle arrest (CAG myeloma cell lines) was “absolutely blocked cell cycle at G2M phase”. For the same compound, the “Dose accomplishing complete suppression of tumor in a variety of xenografts” value [1] was 30 mg/kg, the “Maximal b.w. % drop without death” value [1] was 32% and the “Apoptosis (Annexin V / 7-AAD)” value [2] was “majority of cell either enter apoptosis or are dead”. For the same compound, the “Decrease in body weight without lethality” value [3] was 31%, the solubility (Solubility in water) was 9.4 µg/mL (≈ 19.1 µM) and the IC50 (IGROV) was 15 ± 3.8 nM. It also gave an IC50 (RPMI8226) of 36.7 ± 2 nM, an IC50 [4] of 36.7 to 61.3 nM and a half-life (in vitro) of 1 ± 0.1 h. For the same compound, the “Increase in expression, OAS2” value ([5]; 6 hrs or 18 hrs of dEpoB treatment) was “+2”, the “Increase in expression, MX1” value ([5]; 18 hrs of dEpoB treatment) was “+2.3” and the Cell cycle arrest [6] was “absolutely blocked cell cycle at G2M phase”. For the same compound, the “Survival after transplanting CAG cells (Kaplan-Meier)” value (CAG myeloma cells) was no more than 50 days, the Survival versus controls (CAG myeloma cells; intraperitoneal) was “no difference in survival” and the IC50 (HS-5) was 100 ± 8 nM. For the same compound, the IC50 (HCT-116) was 7.5 ± 3.1 nM, the IC50 (H929) was 42.8 ± 4.5 nM and the IC50 (RL) was 90 ± 11 nM. It also gave an IC50 (CCRF-CEM; human) of 0.0056 ± 0.0028 µM, an IC50 (CCRF-CEM; read-out: IC50 (μM), CCRF-CEM, XTT assay following 72 h inhibition, Table 1-2) of 0.0036 µM and an IC50 (CCRF-CEM; read-out: IC50, CCRF-CEM(C), XTT assay following 72 h inhibition, Table 1-3) of 0.0036 µM. For the same compound, the IC50 (CCRF-CEM; read-out: IC50, CCRF-CEM, XTT assay following 72 h inhibition, Table 1-4) was 0.0036 µM.
